Measurements published in patent US5942511A, “Allylthiopyridazine derivatives and process for preparing the same” (Kwon; Soon Kyoung, priority 1998, dated 1999).

Columns and labels:
[1] = test system: serum ALT (alanine aminotransferase); test: Effect of inhibiting hepatic disorder induced by carbon tetrachloride: serum ALT; type: in vivo, male ICR mice; conditions: CCl4 100 μl/kg i.p., compound 50 mg/kg per day oral, 3 days; for Serum ALT value: mean±SE
Source text: First, the effects of allylthiopyridazine derivative of formula (I) for prevention and treatment of hepatic diseases was examined using carbon tetrachloride model and acetaminophen model.
Carbon tetrachloride model [see, Philippe letteron et al., Biochemical Pharmacology, 39, 12, 2027-2034, 1990] is most frequently used as an experimental model of hepatic disorder and has been established on the basis of the fact that carbon tetrachloride is converted into trichloromethyl free radical (CCl3 .), a highly toxic metabolite, by the action of cytochrome P-450 in body. This metabolite strongly binds with thiol group of liver microsomal membrane protein to produce a lipid radical, which is then converted into peroxy radical in the presence of oxygen, thereby stimulating the peroxidation reaction of membrane lipid. That is, carbon tetrachloride inhibits protein biosynthesis in liver, increases blood ALT (alanine aminotransferase) and causes centrilobular necrosis of liver cells.
(§1) In the present invention, the inhibiting effect of the compound of formula (I) on hepatic disorder, induced by carbon tetrachloride and acetaminophene, was determined after oral administration of the novel compound according to the present invention to mouse as the experimental animal for 3 days. The degree of liver damage in respective experimental animal was determined by measuring ALT and LDH levels in blood [see, Biol. Pharm. Bull., 20, 4, 381-385, 1997; Toxicology and Applied Pharmacology, 95, 1-11, 1988], and further by removing the liver, staining (×100) the liver with hematoxylin and eosin and then observing with microscope to examine the degree of hepatocyte necrosis.
Effect of inhibiting hepatic disorder induced by carbon tetrachloride
(§2) The liver protective effect of the compound according to the present invention was examined according to the known method [see, Philippe letteron et al., Biochemical Pharmacology, 39, 12, 2027-2034, 1990] as specifically described below.
(§3) The compound according to the present invention was suspended in corn oil and the resulting suspension was administered in an amount of 1.0 ml/kg. Each group was composed of 3 to 10 male ICR mice (5-6 weeks) and the test compound was orally administered for 3 days in the dose of 50 mg/kg per day. After the test compound was administered, carbon tetrachloride was intraperitoneally injected in an amount of 100 μl/kg. In this experiment, silymarin was used as the comparative compound. After 24 hours from administration of carbon tetrachloride, blood was taken from the test animal by cardiac perforation and ALT value in serum was determined. The result obtained is described in the following Table 2 (in which ALT value is represented by mean±SE). The ALT unit in serum was determined by centrifuging blood to separate serum as the supernatant, and then the separated serum were subjected to Reitman-Frankel method by means of a commercially available kit (BC101-O,P, Youngdong Pharm.). That is, DL-alanine and α-ketoglutarate were used as the substrate solution to which 2,4-dinitrophenylhydrazine was added to produce hydrazone. Then, sodium hydroxide was added to hydrazone to colorize and then the absorbance was measured at 505 nm.

[2] = test system: radiation damage; test: Protective effect against radiation damage: survival of mouse; type: in vivo, male ICR mouse; conditions: 100 mg/kg per day, 2 days
Source text: Further, the present inventors have confirmed the protective effect of allylthiopyridazine derivative according to the present invention against radiation by administering the active compound to mouse, irradiating the radiation of 8 or 9Gy and, after a certain period, measuring the survival rate of mouse. For example, the survival rate during 30 days of 8Gy radiation can be seen from FIG. 3, and the specific experimental result is described in the following Table 7. Specifically, when 8Gy radiation is used, the survival rate during 30 days in the groups which only radiation was used was merely 48%, whereas the survival rates during 30 days in the groups to which the compounds of Examples 4 and 8 are previously administered were 76% and 70%, respectively. Therefore, it can be noted that the protective effect of the compound according to the present invention against radiation is proven to be a very significant novel discovery.
Protective effect against radiation damage
In order to confirm the protective effect of the compound of the present invention against radiation damage, the following test was conducted.
Male ICR mouse was bred in a chamber to which sterile atmosphere is supplied, at inner temperature 20-23° C. and relative humidity 50% with sufficient water and feed. When the weight of mouse reached 20-25 g, the compound of the present invention was suspended in corn oil and then administered for 2 days in the dose of 100 mg/kg (1 ml/kg) per day. After 3 hours from the last administration of the test compound, 8 or 9 Gy radiation was irradiated to mouse. Specifically, mouse was introduced into a box made of acryl which limited his movement, and then radiation produced from ^60 Co radioactive material was irradiated to whole body at the irradiating rate of 115.8 cGy/min. The dimension of acryl box was 31×31 cm^2, which is the same as the irradiating area of radiation. After 7 days of irradiation of γ-ray, mouse was sacrificed to conduct the histopathologic observation. The result of examining the survival rate during 30 days of irradiation of 8 Gy radiation is shown in FIG. 3, and the result of determining the survival rate after a certain period (10, 13 or 30 days) from irradiation of 8 or 9 Gy radiation is described in the following Table 7.

[3] = test system: hepatocyte necrosis; test: Effect of inhibiting hepatic disorder induced by carbon tetrachloride: hepatocyte necrosis; type: in vivo, male ICR mice; conditions: CCl4 model, 50 mg/kg per day oral, 3 days; for Degree of necrosis 1: number of animals: grade 1 mild lesion; for Degree of necrosis 2: number of animals: grade 2 moderate lesion; for Degree of necrosis 3: number of animals: grade 3 severe lesion; for Degree of necrosis 4: number of animals: grade 4 diffused lesion
Description: as §1, §2, §3
(§4) In addition, liver was removed from the test animals, stained (×100) with hematoxylin and eosin and then observed by microscope. The degree of hepatocyte necrosis was evaluated according to the following 5 grades: 0 no lesion, 1 mild lesion, 2 moderate lesion, 3 severe lesion and 4 diffused lesion.

[4] = test system: serum LDH (lactate dehydrogenase); test: Effect of inhibiting hepatic disorder induced by acetaminophen (APAP): serum LDH; type: in vivo, male ICR mice; conditions: APAP 0.5 g/kg oral, compound 50 mg/kg per day oral, 3 days; for Serum LDH value: mean±SE
Source text: (§5) In addition, the liver protective effects of the compound of the present invention can also be confirmed by acetaminophen model [see, Wang et al., Toxicology and applied Pharmacology, 136, 146-154, 1996]. Acetaminophen is rapidly metabolized by CYP2E1 to cause hepatic toxicity, which results in structural and functional change in liver cellular membrane, causing necrosis in hepatic lobule, an increase in blood ALT and LDH (lactate dehydrogenase) levels.
as §1
(§6) Effect of inhibiting hepatic disorder induced by acetaminophen (APAP)
(§7) The liver protective effect of the compound according to the present invention was examined according to the known method [see, Wang et al., Toxicology and applied Pharmacology, 136, 146-154, 1996] as specifically described below.
(§8) The compound according to the present invention was suspended in corn oil and the resulting suspension was administered in an amount of 1.0 ml/kg. Each group was composed of 3 to 10 male ICR mice (5-6 weeks) and the test compound was orally administered for 3 days in the dose of 50 mg/kg per day. After 2 hours from the last administration of the test compound, acetaminophen was orally administered in an amount of 0.5 g/kg. In this experiment, silymarin was used as the comparative compound. After 22 hours from the administration of acetaminphen, blood was taken from the individual test animal and ALT and LDH values in serum were determined. The results as obtained are described in the following Tables 4 and 5 (in which ALT and LDH values are represented by mean±SE). In addition, liver was removed from the test animals and then observed according to the same manner as Experiment 3 to evaluate the degree of hepatocyte necrosis.

[5] = test system: serum ALT (alanine aminotransferase); test: Effect of inhibiting hepatic disorder induced by acetaminophen (APAP): serum ALT; type: in vivo, male ICR mice; conditions: APAP 0.5 g/kg oral, compound 50 mg/kg per day oral, 3 days; for Serum ALT value: mean±SE
Source text: as §5, §1, §6, §7, §8

[6] = test system: hepatocyte necrosis; test: Effect of inhibiting hepatic disorder induced by acetaminophen (APAP): hepatocyte necrosis; type: in vivo, male ICR mice; conditions: APAP model, 50 mg/kg per day oral, 3 days; for Degree of necrosis 0: number of animals: grade 0 no lesion; for Degree of necrosis 1: number of animals: grade 1 mild lesion; for Degree of necrosis 2: number of animals: grade 2 moderate lesion; for Degree of necrosis 3: number of animals: grade 3 severe lesion; for Degree of necrosis 4: number of animals: grade 4 diffused lesion
Description: as §1, §4, §7, §8

[7] = literature; cited from earlier work
[8] = test system: microsomal epoxide hydrolase (mEH) and glutathione S-transferases (GST); conditions: literature; cited from earlier work
[9] = literature; cited from earlier work; remark: listed apart in the source
[10] = induced by carbon tetrachloride and acetaminophen; cited from earlier work

SMILES | Inhibiting rate (serum ALT) [1] | Serum ALT value [1] | Degree of necrosis 1: number of animals [3] | Degree of necrosis 2: number of animals [3] | Degree of necrosis 3: number of animals [3] | Degree of necrosis 4: number of animals [3] | Inhibiting rate (serum LDH) [4] | Serum LDH value [4] | Inhibiting rate (serum ALT) [5] | Serum ALT value [5] | Degree of necrosis 0: number of animals [6] | Degree of necrosis 1: number of animals [6] | Degree of necrosis 2: number of animals [6] | Degree of necrosis 3: number of animals [6] | Degree of necrosis 4: number of animals [6] | effect on oncogenesis and hepatotoxicity of 1,2-dimethylhydrazine [9] | further results
C=CCSc1ccc(OCC)nn1 [Example 8] | 33% | 6123 ± 2230 KA unit/l | 1 | 2 | 1 | 3 | 95.6% | 1193 ± 546 KA unit/l | 99% | 98 ± 26 KA unit/l | 7 | 0 | 2 | 0 | 0 | – | survival number ([2]; 10 days of 9 Gy radiation): 17/23; survival rate ([2]; 10 days of 9 Gy radiation): 74%; survival number ([2]; 13 days of 9 Gy radiation): 5/23; survival rate ([2]; 13 days of 9 Gy radiation): 22%; survival number ([2]; 30 days of 8 Gy radiation): 16/23; survival rate ([2]; 30 days of 8 Gy radiation): 70%
C=CCSc1ccc(OCCC)nn1 [Example 12, 3-(n-propoxy)-6-allylthiopyridazine] | 40% | 5585 ± 705 KA unit/l | 0 | 2 | 3 | 4 | 59% | 5480 ± 2346 KA unit/l | 25% | 2749 ± 1352 KA unit/l | 0 | 1 | 1 | 1 | 3 | – | Degree of necrosis 0: number of animals ([3]; grade 0 no lesion): 0
Cc1c(-c2cnccn2)ssc1=S [Oltipraz] | – | – | – | – | – | – | – | – | – | – | – | – | – | – | – | – | protection of cellular tissue from radiation [7]: protect the cellular tissue from radiation; expression rate of mEH and GST [8]: increases the expression rate of microsomal epoxide hydrolase (mEH) and glutathione S-transferases (GST)
C=CCS[S+]([O-])CC=C (stereo not drawn) [allicin] | – | – | – | – | – | – | – | – | – | – | – | – | – | – | – | inhibiting oncogenesis due to 1,2-dimethylhydrazine and protecting liver from hepatotoxicity of 1,2-dimethylhydrazine | –
C=CCSCC=C [diallyl sulfide] | – | – | – | – | – | – | – | – | – | – | – | – | – | – | – | inhibiting oncogenesis due to 1,2-dimethylhydrazine and protecting liver from hepatotoxicity of 1,2-dimethylhydrazine | –
CC(C)OC(=O)C(C(=O)OC(C)C)=C1SC=CS1 [malotilate] | – | – | – | – | – | – | – | – | – | – | – | – | – | – | – | – | effect of preventing and treating hepatic diseases [10]: good effect of preventing and treating hepatic diseases induced by carbon tetrachloride and acetaminophen
